For assay [1], the system named is Escherichia coli. The assay is described as follows: Induction of LsrB-dependent quorum sensing in Escherichia coli KX1446 assessed as expression of Lsr system at 40 uM by beta-galactosidase reporter assay. For orientation: A reporter such as luciferase makes a cellular process visible.
The subject of assay [2] is Escherichia coli. The assay is described as follows: Ratio of compound activity over DPD activity for induction of LsrB-dependent quorum sensing in Escherichia coli KX1446.
Assay [3] addresses Autoinducer 2-binding periplasmic protein LuxP (Vibrio harveyi) (UniProt P54300). The assay is described as follows: Binding affinity to LuxP in Vibrio harveyi MM32 by FRET method.
Assay [4] shares this target. The assay is described as follows: Induction of LuxP-dependent quorum sensing in Vibrio harveyi MM32 assessed as induction of bioluminescence intensity after 4 hrs.

Activity calls are given as the source filed them. The calls are words filed in the database; no cut-off is given here.

Autoinducer 2-binding periplasmic protein LuxP (Vibrio harveyi), sequence (P54300 whole entry): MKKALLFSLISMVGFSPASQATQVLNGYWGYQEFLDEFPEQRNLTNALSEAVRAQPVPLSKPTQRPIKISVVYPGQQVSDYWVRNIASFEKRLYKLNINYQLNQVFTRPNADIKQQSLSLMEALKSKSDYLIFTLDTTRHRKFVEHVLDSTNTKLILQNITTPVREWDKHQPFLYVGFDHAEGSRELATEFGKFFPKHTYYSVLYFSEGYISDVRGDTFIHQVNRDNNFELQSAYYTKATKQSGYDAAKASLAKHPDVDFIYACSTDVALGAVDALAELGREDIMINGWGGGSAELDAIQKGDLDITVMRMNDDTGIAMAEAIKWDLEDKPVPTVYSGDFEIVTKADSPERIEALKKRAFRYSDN

Turning to `C[C@@]1(O)OC[C@H](O)C1(O)O`, in assay [1], the outcome was Active. Besides, the Ratio in assay [2] came out at 6.
For `CC(=O)C(=O)[C@@H](O)CO`, the outcome in assay [1] was inactive. Moreover, the result in assay [3] and in assay [4] was Active.
`C[C@]12OC[C@H](O)[C@@]1(O)O[B-](O)(O)O2`: the outcome in assay [4] was Active.
